Structures are written as SMILES.

One assay deals with BRSSS. Nature of the assay: Post-Emergent Test III (Wheat and Barley). It counts as in vivo. To be noted: for Visual Growth Reduction (%) 21 Days After Application, BRSSS: postemergence; for GR50, BRSSS: effective dose for growth reduction of 50 percent; for GR50, BRSSS / GR80, BRSSS / GR90, BRSSS: probit analysis; for GR80, BRSSS: effective dose for growth reduction of 80 percent; for GR90, BRSSS: effective dose for growth reduction of 90 percent. In a few lines:
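Injury was rated visually on a 0 to 100 percent scale 21 days after treatment, relative to untreated plants, and probit analysis of multiple dose rates gave growth-reduction values. Plants at the second or third true leaf stage had been track-sprayed at 187 L/ha.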

A further assay deals with SINAR (wild mustard). Put plainly: Post-Emergent Test III (Wheat and Barley). It counts as in vivo, Sinapis arvensis. To be noted: for Visual Growth Reduction (%) 21 Days After Application, SINAR: postemergence; for GR50, SINAR: effective dose for growth reduction of 50 percent; for GR50, SINAR / GR80, SINAR / GR90, SINAR: probit analysis; for GR80, SINAR: effective dose for growth reduction of 80 percent; for GR90, SINAR: effective dose for growth reduction of 90 percent. The procedure: Seeds of the desired test plant species were planted in Sun Gro MetroMix® 306 planting mixture, which typically has a pH of 6.0 to 6.8 and an organic matter content of about 30 percent, in plastic pots with a surface area of 103.2 square centimeters (cm^2). When required to ensure good germination and healthy plants, a fungicide treatment and/or other chemical or physical treatment was applied. The plants were grown for 7-36 days in a greenhouse with an approximate 14 h photoperiod which was maintained at about 18° C. during the day and 17° C. during the night. Nutrients and water were added on a regular basis and supplemental lighting was provided with overhead metal halide 1000-Watt lamps as necessary. The plants were employed for testing when they reached the second or third true leaf stage.
A weighed amount, determined by the highest rate to be tested, of each test compound was placed in a 25 mL glass vial and was dissolved in 4 mL of a 97:3 v/v mixture of acetone and DMSO to obtain concentrated stock solutions. […] The concentrated stock solutions obtained were diluted with 20 mL of an aqueous mixture containing acetone, water, isopropyl alcohol, DMSO, Agri-Dex crop oil concentrate, and X-77 surfactant in a 48:39:10:1.5:1.5:0.02 v/v ratio to obtain spray solutions containing the highest application rates. Additional application rates were obtained by serial dilution of 12 mL of the high rate solution into a solution containing 2 mL of 97:3 v/v mixture of acetone and DMSO and 10 mL of an aqueous mixture containing acetone, water, isopropyl alcohol, DMSO, Agri-Dex crop oil concentrate, and X-77 surfactant in a 48:39:10:1.5:1.5:0.02 v/v ratio to obtain ½×, ¼×, ⅛× and 1/16× rates of the high rate. Compound requirements are based upon a 12 mL application volume at a rate of 187 liters per hectare (L/ha). Formulated compounds were applied to the plant material with an overhead Mandel track sprayer equipped with 8002E nozzles calibrated to deliver 187 L/ha over an application area of 0.503 square meters at a spray height of 18 inches (43 cm) above the average plant canopy height. Control plants were sprayed in the same manner with the solvent blank.
The treated plants and control plants were placed in a greenhouse as described above and watered by subirrigation to prevent wash-off of the test compounds. After 21 dAYS, the condition of the test plants as compared with that of the untreated plants was determined visually and scored on a scale of 0 to 100 percent where 0 corresponds to no injury and 100 corresponds to complete kill and presented as indicated in Table A.
By applying the well-accepted probit analysis as described by J. Berkson in Journal of the American Statistical Society, 48, 565 (1953) and by D. Finney in “Probit Analysis” Cambridge University Press (1952), herbicidal injury of a specific compound at various rates can be used to calculate GR10, GR20, GR50, GR80 and GR90 values, which are defined as growth reduction factors that correspond to the effective dose of herbicide required to provide plant growth reduction (GR) of 10 percent, 20 percent, 50 percent, 80 percent and 90 percent, respectively. Probit analysis was applied to data collected from multiple dose rates of individual compounds utilizing the procedures explained in the following examples. The analysis of those dose rates is captured in the following tables.

Take `COC(=O)c1nc(-c2ccc(Cl)c(F)c2C)cc(N)c1Cl` [Compound 73]: the “Visual Growth Reduction (%) 21 Days After Application, BRSSS” value in the assay with BRSSS (35 g ai/ha) is “C (75-84)”. Further, the “Visual Growth Reduction (%) 21 Days After Application, BRSSS” value in the assay with BRSSS (70 g ai/ha) is reported as “B (85-94)”. Besides, the “Visual Growth Reduction (%) 21 Days After Application, BRSSS” value in the assay on BRSSS (140 g ai/ha) is given as “A (95-100)”. Besides, in the assay on BRSSS, the “GR50, BRSSS” value is recorded as 5 g ai/ha; the “GR80, BRSSS” value was determined as 29 g ai/ha; the “GR90, BRSSS” value amounted to 73 g ai/ha. Moreover, the “Visual Growth Reduction (%) 21 Days After Application, SINAR” value with SINAR (wild mustard) (35 g ai/ha) is “A (95-100)”. Further, in the assay on SINAR (wild mustard) (70 g ai/ha), the “Visual Growth Reduction (%) 21 Days After Application, SINAR” value is recorded as “A (95-100)”. The “Visual Growth Reduction (%) 21 Days After Application, SINAR” value in the assay on SINAR (wild mustard) (140 g ai/ha) is “A (95-100)”. Besides, in the assay with SINAR (wild mustard), the “GR50, SINAR” value is listed as 1 g ai/ha; the “GR80, SINAR” value is recorded as 1 g ai/ha; the “GR90, SINAR” value came to 3 g ai/ha.
With `Nc1c(F)c(-c2ccc(C(F)(F)F)nc2)nc(C(=O)O)c1Cl` [Compound 46, 4-amino-5-chloro-3-fluoro-6′-(trifluoromethyl)-[2,3′-bipyridine]-6-carboxylic acid], in the assay on BRSSS (35 g ai/ha), the “Visual Growth Reduction (%) 21 Days After Application, BRSSS” value is “D (60-74)”. Moreover, the “Visual Growth Reduction (%) 21 Days After Application, BRSSS” value in the assay with BRSSS (70 g ai/ha) is “D (60-74)”. For the same molecule, in the assay with BRSSS (140 g ai/ha), the “Visual Growth Reduction (%) 21 Days After Application, BRSSS” value was “C (75-84)”. For the same molecule, in the assay with BRSSS, the “GR50, BRSSS” value is reported as 11 g ai/ha; the “GR80, BRSSS” value is on record as over 140 g ai/ha; the “GR90, BRSSS” value was over 140 g ai/ha. Moreover, in the assay with SINAR (wild mustard) (35 g ai/ha), the “Visual Growth Reduction (%) 21 Days After Application, SINAR” value is given as “B (85-94)”. Besides, the “Visual Growth Reduction (%) 21 Days After Application, SINAR” value in the assay on SINAR (wild mustard) (70 g ai/ha) is “B (85-94)”. The “Visual Growth Reduction (%) 21 Days After Application, SINAR” value in the assay on SINAR (wild mustard) (140 g ai/ha) was “A (95-100)”. In the assay with SINAR (wild mustard), the “GR50, SINAR” value is on record as 2 g ai/ha; the “GR80, SINAR” value was 19 g ai/ha; the “GR90, SINAR” value is given as 62 g ai/ha.
`Cc1c(-c2cc(N)c(Cl)c(C(=O)O)n2)ccc(Cl)c1F` [Compound 52]: in the assay with BRSSS (35 g ai/ha), the “Visual Growth Reduction (%) 21 Days After Application, BRSSS” value is given as “B (85-94)”. Further, in the assay with BRSSS (70 g ai/ha), the “Visual Growth Reduction (%) 21 Days After Application, BRSSS” value is listed as “B (85-94)”. For the same molecule, the “Visual Growth Reduction (%) 21 Days After Application, BRSSS” value in the assay with BRSSS (140 g ai/ha) is on record as “B (85-94)”. In the assay with BRSSS, the “GR50, BRSSS” value is reported as 1 g ai/ha; the “GR80, BRSSS” value worked out at 11 g ai/ha; the “GR90, BRSSS” value is given as 41 g ai/ha. The “Visual Growth Reduction (%) 21 Days After Application, SINAR” value in the assay on SINAR (wild mustard) (35 g ai/ha) is “A (95-100)”. Further, the “Visual Growth Reduction (%) 21 Days After Application, SINAR” value in the assay on SINAR (wild mustard) (70 g ai/ha) is “A (95-100)”. The “Visual Growth Reduction (%) 21 Days After Application, SINAR” value with SINAR (wild mustard) (140 g ai/ha) is “A (95-100)”. In the assay on SINAR (wild mustard), the “GR50, SINAR” value was determined as 1 g ai/ha; the “GR80, SINAR” value amounted to 1 g ai/ha; the “GR90, SINAR” value was 5 g ai/ha.

Values taken from patent US10765114B2, “4-amino-6-(pyridyl and 2-substitutedphenyl)-picolinates and 6-amino-2-(pyridyl and 2-substitutedphenyl)-pyrimidine-4-carboxylates and their use as herbicides” (Dow AgroSciences LLC, priority 2013, dated 2020).
